According to patent publication US10167292B2, “Benzodiazepines as bromodomain inhibitors” (Catalyst Therapeutics Pty Ltd, priority 2015, dated 2019):

Experiments:
MV4; 11 = assay: Cell proliferation assay (CellTiter-Glo), MV4;11; assay type: cell-based; settings: Homo sapiens, MV4;11 cells, 72 h
Protocol: (§1) The cells were prepared in the required fashion (suspension or adherent). The cells were initially washed once in the culture medium that they would be finally treated in. Following this 10 ml of the test medium was added and the cells. The mixture was pipetted gently several times.
(§2) The cells were counted and then the volume was spun down to the volume necessary for the total number of cells needed. The cells were then resuspended in the appropriate test medium to the desired concentration. In general, the final concentration of non-adherent cells was 2×10^5 cells/ml i.e. 10,000 cells per 50 μ1. Once the desired concentration had been reached, 50 µl of the cells were added to the appropriate wells and the cells were incubated for 72 h at 37° C.
(§3) CellTiter-Glo Luminescent Assay (Kit G7571—See Promega's Instruction Manual for Additional Details):
(§4) Both reagents were pre-warmed to RT. The buffer was thawed in a 37° C. water bath until it had just completely thawed. It was then left on a bench at RT for at least 30 min.
(§5) Following this the substrate and buffer were mixed together. To ensure that the substrate was dissolved, the mixture was inverted several times.
(§6) The cell culture plates were removed from the incubator and were then allowed to adjust to RT for at least 30 min.
(§7) Afterwards 40 μL of the reagent was added to 100 μL of the culture medium. […] The plates were then incubated for 10 min on the bench. The luminescence could then be read using a luminescence plate reader.

BRD-3 (Domain 1) = BRD-3 (Domain 1) (Homo sapiens (Human), UniProt Q15059); assay: AlphaScreen BRD binding assay, BRD-3 (Domain 1); settings: acetyl-histone H4 peptide 2.5 nM, protein 80 nM
Protocol: (§8) Biological Characterization Assay Conditions Binding Assay
BRD binding and inhibition was assessed by measuring the interaction of biotinylated acetyl-histone H4 peptide (Anaspec #64989) with the BRD target protein utilising AlphaScreen® technology (Perkin Elmer). In a white 384-well low volume plate (Greiner #784076), 100 nL of compound series in DMSO (0.5% final concentration) was added to the BRD target protein (80 nM final). After 30 min incubation at RT, H4 peptide was added to a final concentration of 2.5 nM. AlphaScreen streptavidin donor beads and AlphaScreen nickel chelate acceptor beads were added to a final concentration of 10 ug/mL each and allowed to incubate in a darkened environment for 1 h at RT. Plates were read on an EnVision plate reader (Perkin Elmer) and IC50's calculated using a four parameter non-linear curve fit.
These conditions are identical for all BRDs screened except BRD2D2 which uses 160 nM protein and 1.25 nM peptide.

HL-60 = assay: Cell proliferation assay (CellTiter-Glo), HL-60; assay type: cell-based; settings: Homo sapiens, HL-60 cells, 72 h
Protocol: as §1, §2, §3, §4, §5, §6, §7

BRD-4 (Domain 2) = BRD-4 (Domain 2) (Homo sapiens (Human), UniProt O60885); assay: AlphaScreen BRD binding assay, BRD-4 (Domain 2); settings: acetyl-histone H4 peptide 2.5 nM, protein 80 nM
Protocol: as §8
(§9) AlphaScreen streptavidin donor beads and AlphaScreen nickel chelate acceptor beads were added to a final concentration of 10 ug/mL each and allowed to incubate in a darkened environment for 1 h at RT. Plates were read on an EnVision plate reader (Perkin Elmer) and IC50's calculated using a four parameter non-linear curve fit.

BRD-2 (Domain 1) = BRD-2 (Domain 1) (Homo sapiens (Human), UniProt P25440); assay: AlphaScreen BRD binding assay, BRD-2 (Domain 1); settings: acetyl-histone H4 peptide 2.5 nM, protein 80 nM
Protocol: as §8, §9

BRD-2 (Domain 2) = BRD-2 (Domain 2) (Homo sapiens (Human), UniProt P25440); assay: AlphaScreen BRD binding assay, BRD-2 (Domain 2); settings: 160 nM protein and 1.25 nM peptide
Protocol: as §8, §9

BRD-4 (Domain 1) = BRD-4 (Domain 1) (Homo sapiens (Human), UniProt O60885); assay: AlphaScreen BRD binding assay, BRD-4 (Domain 1); settings: acetyl-histone H4 peptide 2.5 nM, protein 80 nM
Protocol: as §8, §9

BRD-2 (Domain 2), sequence (P25440 344-453): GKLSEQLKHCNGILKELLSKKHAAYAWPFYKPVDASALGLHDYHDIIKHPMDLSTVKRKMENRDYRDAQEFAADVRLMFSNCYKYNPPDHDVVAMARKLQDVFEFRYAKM
BRD-2 (Domain 1), sequence (P25440 74-180): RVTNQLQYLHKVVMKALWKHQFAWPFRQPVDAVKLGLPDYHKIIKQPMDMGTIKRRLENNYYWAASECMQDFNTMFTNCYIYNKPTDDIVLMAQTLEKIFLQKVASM
BRD-3 (Domain 1), sequence (Q15059 34-140): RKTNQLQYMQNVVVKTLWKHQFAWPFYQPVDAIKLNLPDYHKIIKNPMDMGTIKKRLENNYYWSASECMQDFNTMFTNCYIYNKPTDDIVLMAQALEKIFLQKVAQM

| SMILES | IC50 (MV4; 11) | IC50 (BRD-3 (Domain 1)) | IC50 (HL-60) | IC50 (BRD-4 (Domain 2)) | IC50 (BRD-2 (Domain 1)) | IC50 (BRD-2 (Domain 2)) | IC50 (BRD-4 (Domain 1)) |
| --- | --- | --- | --- | --- | --- | --- | --- |
| Cc1nnn2c1-c1ccc(C(=O)NC(C)c3ccccc3)cc1N(c1ccc(Cl)cc1)CC2 (stereo in doubt) [Example 35, 7-(4-chlorophenyl)-1-methyl-N—((R)-1-phenylethyl)-6,7-dihydro-5H-benzo[f][1,2,3]triazolo[1,5-d][1,4]diazepine-9-carboxamide] | < 1 µM | < 0.1 µM | < 1 µM | – | – | – | – |
| Cc1nnn2c1-c1ccc(C(=O)NS(=O)(=O)c3ccccc3)cc1N(c1ccc(Cl)cc1)CC2 [Example 40, 7-(4-chlorophenyl)-1-methyl-N-(phenylsulfonyl)-6,7-dihydro-5H-benzo[f][1,2,3]triazolo[1,5-d][1,4]diazepine-9-carboxamide] | 1 to 5 µM | < 0.1 µM | > 5 µM | < 0.1 µM | < 0.1 µM | < 0.1 µM | < 0.1 µM |
| Cc1nnn2c1-c1ccc(-c3cc[nH]n3)cc1N(c1ccc(Cl)cc1)CC2 [Example 10, 7-(4-Chlorophenyl)-1-methyl-9-(1H-pyrazol-3-yl)-6,7-dihydro-5H-benzo[f][1,2,3]triazolo[1,5-d][1,4]diazepine] | < 1 µM | < 0.1 µM | < 1 µM | < 0.1 µM | – | – | < 0.1 µM |
| CONC(=O)c1ccc2c(c1)N(c1ccc(Cl)cc1)CCn1nnc(C)c1-2 [Example 46, 7-(4-chlorophenyl)-N-methoxy-1-methyl-6,7-dihydro-5H-benzo[f][1,2,3]triazolo[1,5-d][1,4]diazepine-9-carboxamide] | < 1 µM | – | < 1 µM | < 0.1 µM | < 0.1 µM | < 0.1 µM | < 0.1 µM |
| Cc1ccc(-c2ccc3c(c2)N(c2ccc(Cl)cc2)CCn2nnc(C)c2-3)cn1 [Example 7, 7-(4-Chlorophenyl)-1-methyl-9-(6-methylpyridin-3-yl)-6,7-dihydro-5H-benzo[f][1,2,3]triazolo[1,5-d][1,4]diazepine] | < 1 µM | < 0.1 µM | < 1 µM | < 0.1 µM | – | – | < 0.1 µM |
| Cc1nnn2c1-c1ccc(C(=O)N[C@@H](C)c3ccc(F)cc3)cc1N(c1ccccc1)CC2 [Example 43] | < 1 µM | – | < 1 µM | < 0.1 µM | < 0.1 µM | < 0.1 µM | < 0.1 µM |
| Cc1nnn2c1-c1ccc(C(=O)Nc3ccccc3)cc1N(c1ccc(Cl)cc1)CC2 [Example 36, 7-(4-chlorophenyl)-1-methyl-N-phenyl-6,7-dihydro-5H-benzo[f][1,2,3]triazolo[1,5-d][1,4]diazepine-9-carboxamide] | < 1 µM | < 0.1 µM | < 1 µM | – | – | – | – |
| Cc1nnn2c1-c1ccc(-c3ccc(N)nc3)cc1N(c1ccc(Cl)cc1)CC2 [Example 8, 5-(7-(4-Chlorophenyl)-1-methyl-6,7-dihydro-5H-benzo[f][1,2,3]triazolo[1,5-d][1,4]diazepin-9-yl)pyridin-2-amine] | < 1 µM | < 0.1 µM | < 1 µM | < 0.1 µM | – | – | < 0.1 µM |
| Cc1nnn2c1-c1ccc(C(=O)NC(C)c3ccccc3)cc1N(c1ccc(Cl)cc1)CC2 (stereo in doubt) [Example 39, 7-(4-chlorophenyl)-1-methyl-N—((S)-1-phenylethyl)-6,7-dihydro-5H-benzo[f][1,2,3]triazolo[1,5-d][1,4]diazepine-9-carboxamide] | < 1 µM | < 0.1 µM | < 1 µM | – | – | – | – |
| Cc1nnn2c1-c1ccc(C(=O)O)cc1N(c1ccc(Cl)cc1)CC2 [Example 32, 7-(4-chlorophenyl)-1-methyl-5,6-dihydrotriazolo[1,5-d][1,4]benzodiazepine-9-carboxylic acid] | < 1 µM | < 0.1 µM | > 5 µM | – | 0.1 to 1 µM | < 0.1 µM | – |
| Cc1nnn2c1-c1ccc(C(=O)NOCCO)cc1N(c1ccc(Cl)cc1)CC2 [Example 45, 7-(4-Chlorophenyl)-N-(2-hydroxyethoxy)-1-methyl-6,7-dihydro-5H-benzo[f][1,2,3]triazolo[1,5-d][1,4]diazepine-9-carboxamide] | < 1 µM | – | < 1 µM | < 0.1 µM | < 0.1 µM | < 0.1 µM | < 0.1 µM |
